Source: US9512073B2, “Amino acid-, peptide-and polypeptide-lipids, isomers, compositions, and uses thereof” (Massachusetts Institute of Technology, priority 2011, dated 2016)
“Also recorded” adds a separate entry of the source.

Experiments:
firefly luciferase = assay: In vitro siRNA transfection assay (luciferase silencing) in HeLa cells with apolipoproteins; type: cell-based; settings: for order of silencing effects: with addition of ApoE3 (ApoE), siRNA 50 ng/well
Procedure: HeLa cells, stably expressing firefly luciferase and Renilla luciferase, were seeded (14,000 cells/well) into each well of an opaque white 96-well plate (Corning-Costar) and allowed to attach overnight in growth medium. Growth medium was composed of 90% phenol red-free DMEM, 10% FBS, 100 units/ml penicillin, […] streptomycin (Invitrogen). Cells were transfected with LNPs formulated with anti-luciferase siRNA by addition of formulated particles to growth medium. Transfections were performed in quadruplicate. Cells were allowed to grow for 1 d at 37° C., 5% CO2 and were then analyzed for luciferase expression. Control experiments were performed with Lipofectamine 2000, as described by the vendor (Invitrogen). Firefly and Renilla luciferase expression was analyzed using Dual-Glo assay kits (Promega). Luminescence was measured using a Victor3 luminometer (Perkin Elmer). Effects of apolipoproteins were evaluated through an in vitro siRNA transfection assay in HeLa cells as previously reported. HeLa cells, stably expressing firefly luciferase and Renilla luciferase were seeded in an opaque white 96-well plate (Corning-Costar) overnight. Cells were transfected by cKK-E12 formulated with 50 ng of firefly-specific siLuc in quadruplicate. Apolipoproteins (Fitzgerald Industries) were incubated with cKK-E12 formulations for 5 mins before adding to cells. After 24 h incubation at 37° C., 5% CO2, cells were analyzed for luciferase expression using Dual-Glo assay kits (Promega). For visualization of cell uptake, cKK-E12 was formulated with an Alexa-Fluor siRNA and incubated with Hela cells for 3 h. Cells were then fixed in 4% paraformaldehyde, permeabilized with 0.1% saponin and stained with Hoescht. All images were acquired using an Opera spinning disc confocal system (Perkin Elmer), and the data was analyzed using Acapella Software (Perkin Elmer).

Factor VII = assay: In vivo Factor VII gene silencing in mice; set-up: species or system C57BL/6 mice
Procedure: APPL, distearoyl phosphatidylcholine (DSPC), cholesterol and mPEG2000-DMG were solubilized in 90% ethanol at a molar ratio of 50:10:38.5:1.5. The siRNA (against firefly luciferase or fVII) was solubilized in 10 mM citrate, pH 3 buffer at a concentration of 0.4 mg/mL. The ethanolic lipid solution and the aqueous siRNA solution were pumped by means of a syringe pump through a microfluidic mixing chamber to spontaneously form siRNA-containing lipid nanoparticles. Lipids were combined with siRNA at a total lipid to siRNA ratio of 7:1 (wt:wt). These formulations were dialyzed against PBS to remove ethanol and exchange buffer. […]
C57BL/6 mice (Charles River Labs) were used for siRNA silencing experiments. […] After 48 or 72 h, body-weight gain/loss was measured and mice were anaesthetized by isofluorane inhalation for blood sample collection by retroorbital eye bleed. Serum was isolated with serum separation tubes (Falcon tubes, Becton Dickinson) and Factor VII protein levels were analyzed by chromogenic assay (Biophen FVII, Aniara Corporation). A standard curve was constructed using samples from PBS-injected mice and relative Factor VII expression was determined by comparing treated groups to untreated PBS control. […]

SMILES	order of silencing effects (firefly luciferase)	luciferase silencing, relative potency (firefly luciferase; without addition of ApoE3, siRNA 50 ng/well)	Factor VII silencing, relative potency (Factor VII; lower dose of 0.1 mg/kg, 0.1 mg/kg)	Factor VII silencing, relative potency (Factor VII; siRNA formulation, systemic administration, dose of 1 mg/kg)
CCCCCCCCCCCCN(CCCCCCCCCCCC)CCCCC1NC(=O)C(CCCCN(CCCCCCCCCCCC)CCCCCCCCCCCC)NC1=O (centres unmarked) [cKK-A12]	cKK-E12>cKK-A12>cKK-O12	more potent than cKK-E12 and cKK-O12	–	–
CCCCCCCCCCC(O)CN(CCCCC1NC(=O)C(CCCCN(CC(O)CCCCCCCCCC)CC(O)CCCCCCCCCC)NC1=O)CC(O)CCCCCCCCCC (centres unmarked) [cKK-E12]	cKK-E12>cKK-A12>cKK-O12	–	lead compound; also recorded: most potent material	more potent than aldehyde and acrylate derivatives
